According to patent US20260337190A1, “CRYSTAL FORM OF PYRIDINOPYRIMIDINONE COMPOUND, ACID SALT THEREOF, CRYSTAL FORM OF ACID SALT THEREOF, AND USE” (Wuhan Humanwell Innovative Drug Research and Development …, priority 2022, published 2026):
Counter-ions that a name gives are not always drawn.

Tests used:
[1] = system: mutated KRAS and wild-type KRAS in tumor cells; details: cited from earlier work
[2] = Human liver microsome stability; assay type: in vitro ADME; details: human liver microsomes, 30 min, 37 °C, NADPH; read-out: Remaining percentage of compound after incubation for 30 min
Experimental: The human liver microsome stability test was performed by incubating the compound and human liver microsomes in vitro. First, the compound to be tested was prepared into a 10 mM stock solution in DMSO solvent, and then the compound was diluted to 0.5 mM with acetonitrile. Human liver microsomes (Corning) were diluted with PBS into a microsome/buffer solution, and the solution was used to dilute 0.5 mM compound into a working solution, in which the concentration of the compound was 1.5 μM, and the concentration of human liver microsomes was 0.75 mg/mL. A deep-well plate was taken, 30 μL of the working solution was added per well, and then 15 μL of pre-heated 6 mM NADPH solution was added thereto to initiate a reaction, and the reaction was incubated at 37 °C At 0, 5, 15, 30, and 45 min of the incubation, 135 μL of acetonitrile was added to the corresponding wells to terminate the reaction. After the reaction was terminated with acetonitrile at the last time point of 45 min, the deep-well plate was vortexed for 10 min (600 rpm/min), and then centrifuged for 15 min. After centrifugation, the supernatant was collected, and added with purified water in a ratio of 1:1 to perform LC-MS/MS detection. A ratio of a peak area of compound to a peak area of internal standard at each time point was obtained, and the peak area ratios of the compound at 5, 15, 30, and 45 min were compared with the peak area ratio at 0 min to calculate the remaining percentage of the compound at each time point. T1/2 was calculated by using GraphPad 5 software.

[3] = Solid state stability (25 °C/60% RH and 40 °C/75% RH, one week; XRPD and HPLC); assay type: physicochemical; details: for solid state stability: open condition, one week, 25 °C/60% RH and 40 °C/75% RH
Experimental: The purity test, dynamic solubility test, and stability test in the assay were measured with an Agilent 1260 high-performance liquid chromatograph, and the salt formation molar ratio of ions was tested by ion chromatography, and the analytical conditions are shown in Table 5 and Table 6.

[4] = Influence of vacuum drying on crystal form A (XRPD, HPLC purity); assay type: physicochemical; details: vacuum drying 60 °C/80 °C, 4 hours
Experimental: In order to evaluate the influence of the drying conditions on the crystal form A of the compound of formula I, the changes of the sample before and after vacuum drying of the crystal form A of the compound of formula I under the condition of 60 °C/80 °C for 4 hours were respectively investigated. The XRPD, ^1H NMR, and HPLC purity of the dried sample were tested.

[5] = Dynamic solubility in water, SGF, FaSSIF and FeSSIF; assay type: physicochemical; details: for solubility in water, SGF, FaSSIF and FeSSIF: 37 °C, 10 mg/mL feed, 1, 4, 24 hours; for change in crystal form after solubility test: XRPD after solubility test
Experimental: Purified water was added to complete dissolution.

[6] = Hygroscopicity by dynamic vapor sorption (DVS); assay type: physicochemical; details: 25 °C
Experimental: The dynamic vapor sorption (DVS) curve was collected on DVS IntrInsic from SMS (surface measurement systems). The relative humidity at 25 °C was corrected using the deliquescence points of LiCl, Mg(NO3)2, and KCl.
Starting from 0% RH or room humidity, the test collected the mass change percentage of the sample as the humidity changed (0% RH to 95% RH) under constant temperature conditions of 25 °C The results of the DVS test and the XRPD results of the samples before and after the DVS test are shown in FIG. 113 to FIG. 122.

[7] = Variable temperature XRPD (VT-XRPD) of crystal forms; assay type: physicochemical; details: for crystal form on N2 purging: purged with N2 for 20 minutes; for crystal form on heating to 150 °C: N2, heated to 150 °C and cooled; for crystal form on exposure to air: exposed to air after N2 purging/heating
Text: The XRPD pattern was collected on an X-ray powder diffraction analyzer produced by PANalytacal, and the scanning parameters are shown in Table 2.
The crystal form A of the compound of formula I of Example 2 was identified using variable temperature XRPD (VT-XRPD).

Compound: CNCc1ccccc1-c1csc([C@@H](C)Nc2nc(C)nc3cc(OC)c(OC)cc23)c1 [BAY-293]
- reduction of activity of mutated and wild-type KRAS in tumor cells [1]: can effectively reduce the activity of mutated KRAS and wild-type KRAS in tumor cells

Compound: Cc1nc(N[C@H](C)c2cccc(C(F)(F)F)c2C)c2cn(C3(CF)CC3)c(=O)cc2n1 [Control compound 1, reference compound]
- remaining at 0.5 h [2]: 70.2%

Compound: Cc1nc(N[C@H](C)c2cccc(S(F)(F)(F)(F)F)c2)c2cn(C3(CF)CC3)c(=O)cc2n1 [Crystal form A methanesulfonate salt]
- HPLC results Purity (solid state stability) ([3]; 25 °C/60% RH/open, 1 week): 99.21 area %
- HPLC results Purity (solid state stability) ([3]; 40 °C/75% RH/open, 1 week): 99.26 area %
- HPLC results Purity (solid state stability) ([3]; Onset): 99.18 area %

Compound: Cc1nc(N[C@H](C)c2cccc(S(F)(F)(F)(F)F)c2)c2cn(C3(CF)CC3)c(=O)cc2n1 [Crystal form B citrate salt]
- HPLC results Purity (solid state stability) ([3]; 25 °C/60% RH/open, 1 week): 99.00 area %
- HPLC results Purity (solid state stability) ([3]; 40 °C/75% RH/open, 1 week): 99.01 area %
- HPLC results Purity (solid state stability) ([3]; Onset): 98.92 area %

Compound: Cc1nc(N[C@H](C)c2cccc(S(F)(F)(F)(F)F)c2)c2cn(C3(CF)CC3)c(=O)cc2n1 [crystal form A of the compound of formula I]
- change in purity before and after drying (HPLC) [4]: no significant change in purity was observed
- crystal form after vacuum drying ([4]; exposure to 19 °C/27% RH 10-15 min): still the crystal form A of the compound of formula I
- solubility in water, SGF, FaSSIF and FeSSIF [5]: high solubility
- change in crystal form after solubility test [5]: no change in crystal form is observed
- solid state stability [3]: good stability
- moisture behaviour higher than 10% RH [6]: absorb more moisture and gain more weight with the increase of humidity
- moisture behaviour lower than 10% RH [6]: rapidly dehydrate
- crystal form on N2 purging [7]: transformed into a new crystal form B

Compound: Cc1nc(N[C@H](C)c2cccc(S(F)(F)(F)(F)F)c2)c2cn(C3(CF)CC3)c(=O)cc2n1 [crystal form A of the fumarate salt of the compound of formu]
- solubility in water, SGF, FaSSIF and FeSSIF [5]: high solubility
- change in crystal form after solubility test [5]: no change in crystal form is observed
- solid state stability [3]: good stability
- moisture behaviour higher than 10% RH [6]: absorb more moisture and gain more weight with the increase of humidity
- moisture behaviour lower than 10% RH [6]: rapidly dehydrate
- crystal form on heating to 150 °C [7]: No change in the crystal form was observed
- crystal form on exposure to air [7]: transcrystallized back to the crystal form A of the fumarate salt
- crystal form on N2 purging [7]: a peak shift was observed

Compound: Cc1nc(N[C@H](C)c2cccc(S(F)(F)(F)(F)F)c2)c2cn(C3(CF)CC3)c(=O)cc2n1 [crystal form A of the methanesulfonate salt of the compound ]
- solubility in water, SGF, FaSSIF and FeSSIF [5]: high solubility
- solid state stability [3]: good stability
- hygroscopicity ([6]; 0% RH to 95% RH): slightly hygroscopic
- crystal form on heating to 150 °C [7]: no change in the crystal form was observed

Compound: Cc1nc(N[C@H](C)c2cccc(S(F)(F)(F)(F)F)c2)c2cn(C3(CF)CC3)c(=O)cc2n1 [crystal form B of the compound of formula I]
- crystal form on exposure to air [7]: transcrystallized back to the crystal form A
- crystal form on heating to 100 °C and cooling to 30 °C ([7]; under N2, 100 °C, cooled to 30 °C): No crystal change was observed
